Entries after “also recorded” stand apart in the source; their conditions may differ. Like-named read-outs stand apart in the source and are kept apart here.
Columns and labels:
[1] = cited from earlier work
[2] = Texter, Langmuir, 8, 291 (1992), cited from earlier work
[3] = pH measurement of FD1 slurry on addition of buffering salt; type: physicochemical; details: 0.1 mole/L aqueous salt added to S1 slurry
Protocol: Measurements of pH were made using a Corning combination pH electrode, calibrated with VWR buffers of pH 4.0 and pH 7.0, using a Radiometer Copenhagen PHM63 pH meter. Equilibrated measurements were taken at about 24° C. while stirring the solutions or slurries.
About 97.0 g of the above described S1 slurry were placed in a 200 mL beaker upon a magnetic stirrer, and this slurry was moderately stirred using a magnetic stirring bar.
About 93.9 g of the above described S1 slurry were placed in a 200 mL beaker upon a magnetic stirrer, and was moderately stirred. […] Aliquots of 0.1 mole/L aqueous sodium citrate were added, and pH was recorded after each addition.
About 93.3 g of the above described S1 slurry were placed in a 200 mL beaker and stirred.

[4] = Electroacoustic sonic amplitude (ESA) as a function of pH; type: physicochemical

SMILES | pKa ([1]; 25° C.) | other results
CNS(C)(=O)=O [CH3 SO2 NHCH3] | 11.79 | –
O=C(c1ccccc1)c1cccc(NS(=O)(=O)C(F)(F)F)c1 [m-C6 H5 CO--C6 H4 --NHSO2 CF3] | 3.50 | –
NS(=O)(=O)C(F)F [NH2 SO2 CF2 H] | 8.06 | –
CCS(=O)(=O)NC [CH3 CH2 SO2 NHCH3] | 11.84 | –
COc1ccc(NS(=O)(=O)c2ccccc2)cc1 [p-CH3 O--C6 H4 --NHSO2 --C6 H5] | – | pKa ([1]; 20° C.): 8.70
CC1=NN(c2ccc(C(=O)O)cc2)C(=O)C1=Cc1c(C)nn(-c2ccc(C(=O)O)cc2)c1O [FD2] | – | intrinsic electrokinetic charge [2]: negative; S-shaped ESA transition over the pH interval ([2]; slurry in the absence of surfactant): 4-6
CS(=O)(=O)Nc1cccc(C(=O)c2ccccc2)c1 [m-C6 H5 CO--C6 H4 --NHSO2 CH3] | 8.19 | –
O=S(=O)(O)CCCNCCNCCCS(=O)(=O)O [N,N'-Bis(3-sulphopropyl) ethylenediamine] | – | pKa ([1]; 18° C.): 6.65
O=C(NO)c1cccc([N+](=O)[O-])c1 [m-NO2 --C6 H4 --CONHOH] | 8.20 | –
O=C1CS(=O)(=O)NC(=O)N1 [drawing 3] | 2.88 | –
O=C(NO)c1ccc(Br)cc1 [p-Br--C6 H4 --CONHOH] | 8.61 | –
O=C(O)c1ccccc1C(=O)O [Phthalic acid] | – | pKa2 ([1]; 25° C.): 5.41
O=P(O)(O)OC(CO)CO [Glycerol-2-phosphoric acid] | – | pKa2 ([1]; 25° C.): 6.65
NS(=O)(=O)c1ccc(Cl)cc1 [p-Cl--C6 H4 --SO2 NH2] | – | pKa ([1]; 20° C.): 9.77
O=C(c1ccccc1)c1ccc(NS(=O)(=O)C(F)(F)F)cc1 [p-C6 H5 CO--C6 H4 --NHSO2 CF3] | 3.22 | –
Cc1ccc(S(=O)(=O)NO)cc1 [p-CH3 --C6 H4 --SO2 NHOH] | 9.40 | –
NNS(=O)(=O)c1ccc(Br)cc1 [p-Br--C6 H4 --SO2 NHNH2] | 10.36 | –
O=C1NCCS(=O)(=O)N1 | 4.51 | –
O=S(=O)(Nc1cccc(C(F)(F)F)c1)C(F)(F)F [3,3-CF3 --C6 H4 --NHSO2 CF3] | 3.70 | –
Cc1cc(Cl)ccc1NS(=O)(=O)C(F)(F)F [2-CH3-4-Cl--C6 H3 --NHSO2 CF3] | 3.90 | –
Cc1ccc(C(=O)NO)cc1 [p-CH3 --C6 H4 --CONHOH] | 8.99 | –
O=S1(=O)CCCN1 | 11.39 | –
COc1ccc(NS(=O)(=O)C(F)(F)F)cc1 [p-CH3 O--C6 H4 --NHSO2 CF3] | 4.90 | –

SMILES | pKa ([1]; 25° C.) | other results
CC(=O)NS(=O)(=O)c1ccccc1 [C6 H5 --SO2 NHCOCH3] | 4.72 | –
Nc1ccccc1C(=O)O [o-Aminobenzoic acid] | 2.15 | –
CN(C)CCN [Dimethylaminoethylamine] | – | pKa2 ([1]; 25° C.): 6.50
O=S(=O)(Nc1ccc(Cl)cc1Cl)C(F)(F)F [2,4-dichloro-C6 H3 --NHSO2 CF3] | 2.96 | –
Cc1ccc(S(=O)(=O)NN)cc1 [p-CH3 --C6 H4 --SO2 NHNH2] | 10.71 | –
NS(=O)(=O)c1ccc(Br)cc1 [p-Br--C6 H4 --SO2 NH2] | 9.87 | –
O=S(=O)(Nc1ccccc1)C(F)F [C6 H5 --NHSO2 CF2 H] | 6.19 | –
CC(=O)NS(=O)(=O)Nc1cccc([N+](=O)[O-])c1 [m-NO2 --C6 H4 --NHSO2 NHCOCH3] | 3.97 | –
O=S(=O)(Nc1ccc(Cl)cc1C(F)(F)F)C(F)(F)F [2-CF3-4-Cl--C6 H3 --NHSO2 CF3] | 2.59 | –
CC(=O)NS(=O)(=O)c1ccc(C)cc1 [p-CH3 --C6 H4 --SO2 NHCOCH3] | 4.92 | –
CCc1ccc(NS(=O)(=O)C(F)(F)F)cc1 [p-CH3 CH2 --C6 H4 --NHSO2 CF3] | 4.82 | –
O=C(O)/C=C(\CC(=O)O)C(=O)O [trans-Aconitic acid] | – | pKa1 ([1]; 25° C.): 2.80; pKa2 ([1]; 25° C.): 4.46
O=S(=O)(Nc1ccccc1)c1ccccc1 [C6 H5 --SO2 NH--C6 H5] | – | pKa ([1]; 20° C.): 8.31
CC(=O)O [sodium acetate] | – | effect of added buffering salt on slurry pH [3]: increases the slurry pH to a significant extent; also recorded: significantly increases the slurry pH
Cc1c[nH]cn1 [4-Methylimidazole] | 7.67 | –
O=C(O)C(Cl)(Cl)Cl [Trichloroacetic acid] | 0.66 | –
O=C(c1ccccc1)c1cccc(NS(=O)(=O)CF)c1 [m-C6 H5 CO--C6 H4 --NHSO2 CFH2] | 6.77 | –
NS(=O)(=O)c1ccc([N+](=O)[O-])cc1 [p-NO2 --C6 H4 --SO2 NH2] | – | pKa ([1]; 20° C.): 9.14
CCN(CC)CCN(CC)CC [Tetraethylethylenediamine] | – | pKa2 ([1]; 25° C.): 5.89
O=c1[nH]c(=O)c2[nH]c(=O)[nH]c2[nH]1 [Uric acid] | 5.83 | –
O=C(O)c1ccc(S(=O)(=O)Nc2ccccc2)cc1 [p-CO2 H--C6 H4 --SO2 NH--C6 H5] | – | pKa2 ([1]; 20° C.): 7.75
O=S(=O)(NO)c1ccccc1 [C6 H5 --SO2 NHOH] | 9.34 | –
O=C(O)CNC(=O)c1ccccc1 [Hippuric acid] | 3.64 | –

SMILES | pKa ([1]; 25° C.) | other results
NNS(=O)(=O)c1ccccc1 [C6 H5 --SO2 NHNH2] | 10.60 | –
CC(=O)NS(=O)(=O)c1ccc(Br)cc1 [p-Br--C6 H4 --SO2 NHCOCH3] | 4.52 | –
NS(=O)(=O)CF [NH2 SO2 CFH2] | 9.32 | –
NNc1cccc([N+](=O)[O-])c1 [m-NO2 --C6 H4 --NHNH2] | 9.78 | –
CS(=O)(=O)NS(C)(=O)=O [CH3 SO2 NHSO2 CH3] | 1.36 | –
CC(=O)c1ccc(S(=O)(=O)Nc2ccccc2)cc1 [p-COCH3 --C6 H4 --SO2 NH--C6 H5] | – | pKa ([1]; 20° C.): 6.94
O=C1CS(=O)(=O)NC(=O)N1 [drawing 5] | 11.00 | –
CC1=NN(c2ccc(C(=O)O)cc2)C(=O)C1=CC=Cc1c(C)nn(-c2ccc(C(=O)O)cc2)c1O [FD1] | – | intrinsic electrokinetic charge ([4]; FD1 slurries): negative; lowest apparent pKa compared with FD2 ([4]; FD1 versus FD2): three pH units lower than that observed for FD2; solubility of the dye with increasing pH ([4]; above pH 5, FIG. 2): marked increased solubility
Cc1ccc(N)cc1 [p-Toluidine] | 5.30 | –
O=S(=O)(Nc1ccc(F)cc1F)C(F)(F)F [2,4-difluoro-C6 H3 --NHSO2 CF3] | 3.44 | –
O=S(=O)(Nc1c(Cl)cc(Cl)cc1Cl)C(F)(F)F [2,4,6-trichloro-C6 H2 --NHSO2 CF3] | 2.70 | –
OCc1c[nH]cn1 [4-Hydroxylmethylimidazole] | 6.39 | –
O=C([O-])c1ccccc1O.[Na+] [sodium salicylate] | – | effect of added buffering salt on slurry pH [3]: provides some pH control, but that the effect is less than that exhibited comparatively to the earlier examples
Cc1ccc(NS(=O)(=O)c2ccccc2)cc1 [p-CH3 --C6 H4 --NHSO2 --C6 H5] | – | pKa ([1]; 20° C.): 8.64
O=S(=O)(NO)c1ccc(Br)cc1 [p-Br--C6 H4 --SO2 NHOH] | 9.08 | –
OCCN(CCO)CCN(CCO)CCO [Tetrakis-(2-hydroxyethyl) ethylenediamine] | – | pKa2 ([1]; 25° C.): 4.5
O=C1CC(=O)NC(=O)N1 [Barbituric acid] | 4.04 | –
O=[N+]([O-])c1cccc(S(=O)(=O)NO)c1 [m-NO2 --C6 H4 --SO2 NHOH] | 8.60 | –
CC(=O)c1ccc(NS(=O)(=O)C(F)(F)F)cc1 [p-CH3 CO--C6 H4 --NHSO2 CF3] | 3.29 | –
c1ccc2ncccc2c1 [Quinoline] | 5.00 | –
NS(=O)(=O)c1cccc([N+](=O)[O-])c1 [m-NO2 --C6 H4 --SO2 NH2] | 9.40 | –

— patent US5994041A, “Process for buffering concentrated aqueous slurries” (priority 1998, dated 1999)
